One block for each compound: values may come before it.
Assays:
[1] = system: B16 skin tumors; experiment: B16 melanoma model: established skin tumors treated with MNAs; conditions: MNA once weekly for three weeks; for tumor growth: compared to untreated tumor bearing animals; for survival: untreated animals 100% mortality
Method: The B16 melanoma model was used as a model tumor to test these novel approaches.
Visible established cutaneous tumors were treated once weekly for three weeks with MNAs containing either doxorubicin alone, Poly(I:C) alone, or doxorubicin and Poly(I:C) incorporated into the same MNA. The doxorubicin dose chosen corresponds to an MNA dose that induces apoptosis in human skin without causing necrosis. Tumor growth and survival were measured regularly for the duration of the study.

[2] = Dye release from MNAs inserted into 4% agar test-gels; assay type: physicochemical; conditions: dually loaded MNA
Text: To illustrate the delivery of multiple drugs with distinct release kinetics, MNAs were fabricated to delivery two distinct cargos by distinct release kinetics. Specifically, MNAs were fabricated to release the marker Toluidine Blue in an initial burst, followed by a sustained release of the marker FD&C Red40. Dyes were directly loaded in the MNA scaffold matrix (in this case CMC) of the needle tips and in some cases a second dye, encapsulated in a sustained release polymer was layer directly below. MNAs were inserted into 4% agar test-gels and removed after 1 min.
Images of dye diffusion were collected at the indicated time points (FIG. 39A). […] Alternatively, MNAs were fabricated with toluidine blue tip-loaded and FD&C Red40 encapsulated in a sustained release polymer (FIG. 39C). MNAs were inserted into 4% agar test-gel and removed after 1 min. Images were collected at the indicated time-points. […] Upper panels depict images of microneedles from MNAs before application. The middle images are the imprints of the arrays 1 minute after application and MNA removal. Lower panels depicted the indicated representative magnified images at the indicated time points.

[3] = system: epidermal cells of living human skin explants; conditions: 5 mg/g of CMC; arrays removed after 5 minutes; 72 hours of exposure
Method: Cytoxan® was integrated at a concentration of 5 mg/g of CMC, enabling delivery of approximately about 140 μg per array. This is a therapeutically relevant concentration based on the area of skin targeted, yet well below levels associated with systemic toxicities. Living human skin organ cultures were used to assess the cytotoxicty of Cytoxan®. Cytoxan® was delivered by application of arrays to skin explants as we previously described. Arrays and residual material were removed 5 minutes after application, and after 72 hours of exposure, culture living skin explants were cryo-sectioned and fixed. Apoptosis was evaluated using green fluorescent TUNEL assay (In Situ Cell Death Detection Kit, TMR […], Roche, cat #:11-684-795-910).

Compound: COc1cccc2c1C(=O)c1c(O)c3c(c(O)c1C2=O)C[C@@](O)(C(=O)CO)C[C@@H]3O[C@H]1C[C@H](N)[C@H](O)[C@H](C)O1 [doxorubicin]
tumor growth [1]: slowed tumor growth | survival [1]: 30%

Compound: Cc1cc2nc3ccc(N(C)C)cc3[s+]c2cc1N.[Cl-] [Toluidine Blue]
release of tip-loaded dye ([2]; dye in CMC in the needle tip): released in an initial burst

period of release from depot ([2]; dye in underlying layer of sustained release polymer): 10 days
Compound: COc1cc(S(=O)(=O)[O-])c(C)cc1N=Nc1c(O)ccc2cc(S(=O)(=O)[O-])ccc12.[Na+].[Na+] [FD&C Red40]
release of encapsulated dye ([2]; dye encapsulated in a sustained release polymer): released slowly over an extended time period

Compound: O=P1(N(CCCl)CCCl)NCCCO1 (centres unmarked) [Cytoxan®, cyclophosphamide]
apoptosis of epidermal cells (TUNEL) [3]: extensive apoptosis of epidermal cells

Compound: Poly(I:C)
tumor growth [1]: slowed tumor growth | survival [1]: 50%

From patent US11684763B2, “Multi-component bio-active drug delivery and controlled release to the skin by microneedle array devices” (University of Pittsburgh—Of the Commonwealth System of …, priority 2015, dated 2023)
